Broadly, the IC50 is the midpoint of a concentration-inhibition curve. Read a low IC50 as inhibition by little substance.

Molecules are shown by their SMILES. Values joined by “and” are separate entries in the source; they are usually repeats but may differ in a detail not shown here. Equal entries are not always repeated. Numbered stars: 1 amine (or outer) side, 2 acyl side, 3 side chain; on linkers, the order of the positions; unused ones are H or OH. Peptide text beside a SMILES is read from it. * marks the point of attachment. Suc = O=C(CCC(=O)[*:2])[*:1]; Pyrrolidide = C1CCN(*)C1; NHiPr = CC(C)N*

Our source for the IC50 values is patent US5484771A, “Antiherpes peptide derivatives having a 1,4-dioxo-C, N-terminus” (priority 1994, dated 1996).

For the experiment, the target named is T1, HSV-1 ribonucleotide reductase (Human herpesvirus 1, UniProt P08543).
T1 construct: HSV-1 ribonucleotide reductase (partially purified) was obtained from quiescent BHK-21/C13 cells infected with strain F HSV-1 virus; made in house; host or cells: quiescent BHK-21/C13 cells infected with HSV-1 strain F (10 pfu/cell); partially purified
T1 sequence (P08543 whole entry): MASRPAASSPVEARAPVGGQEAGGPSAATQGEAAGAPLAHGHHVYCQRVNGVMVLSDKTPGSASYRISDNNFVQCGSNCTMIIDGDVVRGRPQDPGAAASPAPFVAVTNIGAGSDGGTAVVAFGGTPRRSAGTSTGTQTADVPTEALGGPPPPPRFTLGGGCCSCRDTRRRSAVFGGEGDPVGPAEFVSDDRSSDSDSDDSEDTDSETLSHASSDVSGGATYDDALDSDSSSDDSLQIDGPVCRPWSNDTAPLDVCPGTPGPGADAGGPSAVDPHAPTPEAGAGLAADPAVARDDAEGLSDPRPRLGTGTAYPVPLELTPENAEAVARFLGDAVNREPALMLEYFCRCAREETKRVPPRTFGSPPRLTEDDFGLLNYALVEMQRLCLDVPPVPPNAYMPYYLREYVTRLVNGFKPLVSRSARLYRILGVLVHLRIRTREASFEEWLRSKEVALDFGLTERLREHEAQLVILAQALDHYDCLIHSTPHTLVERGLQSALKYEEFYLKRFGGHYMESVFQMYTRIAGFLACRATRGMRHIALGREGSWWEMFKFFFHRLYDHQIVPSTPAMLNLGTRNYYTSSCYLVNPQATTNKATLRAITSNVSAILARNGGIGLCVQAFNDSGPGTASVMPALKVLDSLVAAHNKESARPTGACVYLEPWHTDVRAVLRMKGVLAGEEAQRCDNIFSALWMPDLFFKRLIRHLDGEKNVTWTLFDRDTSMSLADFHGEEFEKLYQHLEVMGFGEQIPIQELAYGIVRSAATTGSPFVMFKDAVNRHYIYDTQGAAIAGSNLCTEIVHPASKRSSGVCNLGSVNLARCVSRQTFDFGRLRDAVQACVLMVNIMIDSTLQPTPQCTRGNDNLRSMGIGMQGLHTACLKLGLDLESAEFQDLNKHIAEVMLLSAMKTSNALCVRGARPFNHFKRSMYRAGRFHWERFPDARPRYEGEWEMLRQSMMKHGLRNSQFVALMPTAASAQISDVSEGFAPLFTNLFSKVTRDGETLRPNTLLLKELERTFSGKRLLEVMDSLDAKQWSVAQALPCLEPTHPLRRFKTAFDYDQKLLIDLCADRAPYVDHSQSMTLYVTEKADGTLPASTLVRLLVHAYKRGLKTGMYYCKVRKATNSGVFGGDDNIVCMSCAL
Briefly: biochemical. Conditions: IC50, concentration producing 50% of the maximal inhibition of enzyme activity; partially purified enzyme; mean of four assays. The text has this: HSV-1 ribonucleotide reductase (partially purified) was obtained from quiescent BHK-21/C13 cells infected with strain F HSV-1 virus at 10 plaque forming units/cell as described by E. A. Cohen et at., J. Gem Virol., 66, 733 (1985).
By following the procedure described by P. Gaudreau et at., J. Biol, Chem., 262, 12413 (1987), the assay results listed in the following table were obtained. The assay result for each exemplified compound of formula 1 is expressed as the concentration of the compound producing 50% of the maximal inhibition (IC50) of enzyme activity. The number of units of the enzyme preparation used in each assay was constant, based on the specific activity of the enzyme preparation. The results are relative to the activity obtained in control experiments without the test compound and represent the mean of four assays that varied less than 10% with each other.

For the compound `CCC(CC)NC(=O)CCC(=O)N[C@@H](CC(=O)C1CCCC1)C(=O)N[C@@H](CC(=O)O)C(=O)N[C@@H](CC(C)C)C(=O)O` [Et2 CHNHCOCH2 CH2 CO-NHCH-(2-cyclopentyl-2-oxoethyl)-CO-Asp-Leu-OH], half-maximal inhibition (IC50) was put at 3.4 µM.
The value for `CCC(CC)NC(=O)CCC(=O)N[C@@H](CC(=O)N1CCC1)C(=O)N[C@@H](CC(=O)O)C(=O)N[C@@H](CC(C)C)C(=O)O` [Et2 CHNHCOCH2 CH2 CO-Asp(azetidino)-Asp-Leu-OH] was 9.1 µM; that for `CCC(CC)NC(=O)CCC(=O)N[C@@H](CC(=O)OCCCCCl)C(=O)N[C@@H](CC(=O)O)C(=O)N[C@@H](CC(C)C)C(=O)O` [Et2 CHNHCOCH2 CH2 CO-Asp(4-chloro-butyloxy)-Asp-Leu-OH] was 20 µM.
The same measure for `CCC(CC)NC(=O)CCC(=O)N[C@@H](CC(=O)N1CCCC1)C(=O)N[C@@H](CC(=O)O)C(=O)N[C@@H](CC(C)C)C(=O)O` [Title Compound of Example 10, Et2 CHNHCOCH2 CH2 CO--Asp(pyrrolidiono)--Asp-Leu--OH]: 2.9 µM; for `CCC(CC)NC(=O)C1CCCCC1C(=O)N[C@@H](CC(=O)N1CCCC1)C(=O)N[C@@H](CC(=O)O)C(=O)N[C@@H](CC(C)C)C(=O)O` (stereo partly drawn) [Et2 CHNHCO-(cis-1,2-cyclohexanediyl)-CO-Asp(pyrrolidino)-Asp-Leu-OH]: 3.7 µM and 2.21 µM.
The compound `CC(C)C[C@H](NC(=O)[C@H](CC(=O)O)NC(=O)[C@H](CC(=O)N1CCCC1)NC(=O)CCC(=O)NC(C)C)C(=O)O` [Me2 CHNHCOCH2 CH2 CO-Asp(pyrrolidino)-Asp-Leu-OH] ({NHiPr-Suc}-Asp(Pyrrolidide)-Asp-Leu-OH) returned a half-inhibitory concentration (IC50) of 18 µM.
With `CCC(CC)NC(=O)CCC(=O)N[C@@H](CC(=O)N(C)CCO)C(=O)N[C@@H](CC(=O)O)C(=O)N[C@@H](CC(C)C)C(=O)O` [Et2 CHNHCOCH2 CH2 CO-Asp[N(CH3)CH2-CH2 OH]-Asp-Leu-OH], the IC50 is 11 µM.
The value for `CCC(CC)NC(=O)CCC(=O)N[C@@H](CC(=O)N1CCCC1)C(=O)N[C@H](C(=O)NCCC(C)(C)C)C(C)(C)C(=O)O` [Et2 CHNHCOCH2 CH2 CO-Asp(pyrrolidino)-Asp(diMe)-NH[CH2 CH2 C(CH3)3 ]] was 75 µM; that for `CC(C)CNC(=O)CCC(=O)N[C@@H](CC(=O)N1CCCC1)C(=O)N[C@@H](CC(=O)O)C(=O)N[C@@H](CC(C)C)C(=O)O` [Me2 CHCH2 NHCOCH2 CH2 CO-Asp(pyrrolidino)-Asp-Leu-OH] was 75 µM.
The same measure for `CCCCCC[C@H](C)OC(=O)C[C@H](NC(=O)CCC(=O)NC(CC)CC)C(=O)N[C@H](C(=O)N[C@@H](CC(C)C)C(=O)O)C1(C(=O)O)CCC1` [Et2 CHNHCOCH2 CH2 CO-Asp[1(S)-methylheptyloxy]-Asp(cyBu)-Leu-OH]: 4.4 µM; for `CCC(CC)NC(=O)CCC(=O)N(C)[C@@H](CC(=O)N1CCCC1)C(=O)N[C@@H](CC(=O)O)C(=O)N[C@@H](CC(C)C)C(=O)O` [Et2 CHNHCOCH2 CH2 CO-(N-Me)-Asp(pyrrolidino)-Asp-Leu-OH]: 2 µM.
`CCC(CC)NC(=O)CCC(=O)N[C@@H](CC(=O)N(C)CCOC(C)=O)C(=O)N[C@@H](CC(=O)O)C(=O)N[C@@H](CC(C)C)C(=O)O` [Et2 CHNHCOCH2 CH 2 CO-Asp[N(CH3)CH2-CH2 OCOCH3 ]-Asp-Leu-OH]: the IC50 worked out at 9.9 µM.
The same measure for `CC(C)C[C@H](NC(=O)[C@H](CC(=O)O)NC(=O)[C@H](CC(=O)N1CCCC1)NC(=O)CCC(=O)NC1CCCCC1)C(=O)O` [Cyclohexylamino-COCH2 CH2 CO-Asp(pyrrolidino)-Asp-Leu-OH]: 22 µM.
Compound `CCC(CC)NC(=O)CCC(=O)N[C@@H](CC(=O)N1CCCC1)C(=O)N[C@H](C(=O)N[C@H](CO)CC(C)C)C1(C(=O)O)CCC1` [Et2 CHNHCOCH2 CH2,CO-Asp(pyrrolidino)-Asp(cyBu)-(L-leucinol)] gave an IC50 of 5 µM.
The same measure for `CCC(CC)NC(=O)c1ccccc1C(=O)N[C@@H](CC(=O)N1CCCC1)C(=O)N[C@@H](CC(=O)O)C(=O)N[C@@H](CC(C)C)C(=O)O` [Et2 CHNHCO-(1,2-phenylene)-CO-Asp(pyrrolidino)-Asp-Leu-OH]: 6.5 µM; for `CCCCCCCC(=O)C[C@H](NC(=O)CCC(=O)NC(CC)CC)C(=O)N[C@@H](CC(=O)O)C(=O)N[C@@H](CC(C)C)C(=O)O` [Et2 CHNHCOCH2 CH2 CO-NHCH-(2-oxononyl)-CO-Asp-Leu-OH]: 9 µM; for `CCCCCCCCN(C)C(=O)C[C@H](NC(=O)CCC(=O)NC(CC)CC)C(=O)N[C@H](C(=O)N[C@@H](CC(C)C)C(=O)O)C1(C(=O)O)CCCC1` [Et2 CHNHCOCH2 CH2 CO-Asp(N-Me-N-octyl)-Asp(cyPn)-Leu-OH]: 0.73 µM.
The value for `CCC(CC)NC(=O)C[C@H](C(=O)N[C@@H](CC(=O)N1CCCC1)C(=O)N[C@H](C(=O)N[C@@H](CC(C)(C)C)C(=O)O)C1(C(=O)O)CCCC1)C(C)(C)C` [Title Compound of Example 11, Et2 CHNH--COCH2 CH[(S)-C(CH3)3]CO--Asp(pyrrolidino)--Asp(cyPn)-γMeLeu--OH] was 0.17 µM.
In turn, `CCC(CC)NC(=O)CCC(=O)N[C@@H](CC(=O)OC1CCCCC1)C(=O)N[C@@H](CC(=O)O)C(=O)N[C@@H](CC(C)C)C(=O)O` [Et2 CHNHCOCH2 CH2 CO-Asp(cyclohexyloxy)-Asp-Leu-OH] had an IC50 of 75 µM.
The same measure for `CCC(CC)NC(=O)/C=C\C(=O)N[C@@H](CC(=O)N1CCCC1)C(=O)N[C@@H](CC(=O)O)C(=O)N[C@@H](CC(C)C)C(=O)O` [Et2 CHNHCO-(cis-CH=CH)-CO-Asp(pyrrolidino)-Asp-Leu-OH]: 21 µM; for `CCC(CC)NC(=O)CCC(=O)N[C@@H](CC(=O)N1CCC(C)CC(C)(C)C1)C(=O)N[C@@H](CC(=O)O)C(=O)N[C@@H](CC(C)C)C(=O)O` (stereo partly drawn) [Et2 CHNHCOCH2 CH2 CO-Asp(3,3,5-trimethylhexahydroazepino)-Asp-Leu-OH]: 12 µM.
